Data published in patent US8735414B2 (priority 2009, dated 2014).

These compounds were tested on bicistronic HCV replicon (replicon RNA, GenBank Accession No. AJ242654) (assay: HCV Replicon Assay). Details: Hepatitis C virus, 72 h, read-out: Replicon IC50.
Format: cell-based
For `CC(C)(C)N(C(F)F)S(=O)(=O)c1ccc(-c2c(C#N)c3cc(F)c(OC(F)F)cc3n2C2CCC2)nc1` [compound 721, N-tert-butyl-6-[3-cyano-1-cyclobutyl-6-(difluoromethoxy)-5-fluoro-1H-indol-2-yl]-N-(difluoromethyl)pyridine-3-sulfonamide], the IC50 was 500 to 2000 nM.
`CC(C)n1c(-c2ncc(S(=O)(=O)N[C@@H](C)C(F)(F)F)cn2)c(C#N)c2cc(Cl)ccc21` [compound 420, 2-[5-chloro-3-cyano-1-(propan-2-yl)-1H-indol-2-yl]-N-[(2S)-1,1,1-trifluoropropan-2-yl]pyrimidine-5-sulfonamide] showed an IC50 of 500 to 2000 nM.
`COC(=O)c1csc(-n2c(-c3ccc(S(=O)(=O)N[C@@H](C)C(F)(F)F)cn3)c(C#N)c3cc(F)c(C)cc32)n1` [compound 986, methyl 2-[3-cyano-5-fluoro-6-methyl-2-(5-{[(2S)-1,1,1-trifluoropropan-2-yl]sulfamoyl}pyridin-2-yl)-1H-indol-1-yl]-1,3-thiazole-4-carboxylate] was tested, and the IC50 was less than 500 nM.
`C[C@H](N(C(F)F)S(=O)(=O)c1ccc(-c2c(C#N)c3cc(F)c(OC(F)F)cc3n2C2CCC2)nc1)C(F)(F)F` [compound 712, 6-[3-cyano-1-cyclobutyl-6-(difluoromethoxy)-5-fluoro-1H-indol-2-yl]-N-(difluoromethyl)-N-[(2S)-1,1,1-trifluoropropan-2-yl]pyridine-3-sulfonamide] showed an IC50 of 2000 to 5000 nM.
`[2H]C([2H])(C)c1cc2c(cc1F)c(C#N)c(-c1ccc(S(=O)(=O)N[C@@H](C)C(F)(F)F)cn1)n2-c1ncccn1` [compound 1078, 6-{3-cyano-6-[(1,1-dideuterium)ethyl]-5-fluoro-1-(pyrimidin-2-yl)-1H-indol-2-yl}-N-[(2S)-1,1,1-trifluoropropan-2-yl]pyridine-3-sulfonamide] was tested, and the IC50 was less than 500 nM.
Compound `Cc1cc2c(cc1F)c(C#N)c(-c1ccc(S(=O)(=O)NC3CC3)cn1)n2C1CCC1` [compound 652, 6-(3-cyano-1-cyclobutyl-5-fluoro-6-methyl-1H-indol-2-yl)-N-cyclopropylpyridine-3-sulfonamide] has an IC50 of less than 500 nM.
In the case of `CC(C)NS(=O)(=O)c1ccc(-c2c(C#N)c3ccc(OC(F)(F)F)cc3n2C2CCC2)cn1` [compound 26, 5-[3-cyano-1-cyclobutyl-6-(trifluoromethoxy)-1H-indol-2-yl]-N-(propan-2-yl)pyridine-2-sulfonamide], the IC50 is reported as 500 to 2000 nM.
`Cc1ccc2c(C#N)c(-c3ccc(S(=O)(=O)N[C@@H](C)C4CC4)cn3)n(C(C)C)c2c1` [compound 425, 6-[3-cyano-6-methyl-1-(propan-2-yl)-1H-indol-2-yl]-N-[(1S)-1-cyclopropylethyl]pyridine-3-sulfonamide] gave an IC50 of 500 to 2000 nM.
Compound `C[C@H](NS(=O)(=O)c1ccc(-c2c(C#N)c3cc(F)c(C4(C)OCCO4)cc3n2-c2ncccn2)nc1)C(F)(F)F` [compound 927, 6-[3-cyano-5-fluoro-6-(2-methyl-1,3-dioxolan-2-yl)-1-(pyrimidin-2-yl)-1H-indol-2-yl]-N-[(2S)-1,1,1-trifluoropropan-2-yl]pyridine-3-sulfonamide] has an IC50 of less than 500 nM.
For `C=CCc1cc2c(cc1F)c(Cl)c(-c1ccc(S(=O)(=O)N[C@@H](C)C(F)(F)F)cn1)n2-c1ncccn1` [compound 968, 6-[3-chloro-5-fluoro-6-(prop-2-en-1-yl)-1-(pyrimidin-2-yl)-1H-indol-2-yl]-N-[(2S)-1,1,1-trifluoropropan-2-yl]pyridine-3-sulfonamide], the IC50 was 500 to 2000 nM.
`N#Cc1c(-c2ncc(S(=O)(=O)NC(CF)CF)cn2)n(C2CCC2)c2cc(CC(F)F)ccc12` [compound 591, 2-[3-cyano-1-cyclobutyl-6-(2,2-difluoroethyl)-1H-indol-2-yl]-N-(1,3-difluoropropan-2-yl)pyrimidine-5-sulfonamide] showed an IC50 of less than 500 nM.
In the case of `CCc1cc2c(cc1F)c(C#N)c(-c1ccc(S(=O)(=O)N[C@@H](C)C(F)(F)F)cn1)n2-c1ncccn1` [compound 704, 6-[3-cyano-6-ethyl-5-fluoro-1-(pyrimidin-2-yl)-1H-indol-2-yl]-N-[(2S)-1,1,1-trifluoropropan-2-yl]pyridine-3-sulfonamide], the IC50 is reported as less than 500 nM.
In the case of `COC(=O)c1c(-c2ccc(NS(=O)(=O)C(C)(C)C)nc2)n(C2CCCCC2)c2cc(OCF)c(F)cc12` [compound 1099, methyl 2-{6-[(tert-butylsulfonyl)amino]pyridin-3-yl}-1-cyclohexyl-5-fluoro-6-(fluoromethoxy)-1H-indole-3-carboxylate], the IC50 is reported as 500 to 2000 nM.
In the case of `C[C@H](NS(=O)(=O)c1ccc(-c2c(C#N)c3ccc(C4CC4)cc3n2-c2ncccn2)nc1)C(F)(F)F` [compound 650, 6-[3-cyano-6-cyclopropyl-1-(pyrimidin-2-yl)-1H-indol-2-yl]-N-[(2S)-1,1,1-trifluoropropan-2-yl]pyridine-3-sulfonamide], the IC50 is reported as less than 500 nM.
`N#Cc1c(-c2ccc(S(=O)(=O)NC(CF)CF)cn2)n(CC2CC2)c2cc(C3CC3)ccc12` [compound 84, 6-[3-cyano-6-cyclopropyl-1-(cyclopropylmethyl)-1H-indol-2-yl]-N-(1,3-difluoropropan-2-yl)pyridine-3-sulfonamide] showed an IC50 of less than 500 nM.
For `C[C@@H](NS(=O)(=O)c1ccc(-c2c(C#N)c3cc(Cl)ccc3n2C2CCCC2)nc1)C(F)(F)F` [compound 224, 6-(5-chloro-3-cyano-1-cyclopentyl-1H-indol-2-yl)-N-[(2R)-1,1,1-trifluoropropan-2-yl]pyridine-3-sulfonamide], the IC50 was less than 500 nM.
`CCc1cc2c(cc1F)c(C#N)c(-c1ccc(S(=O)(=O)N[C@@H](C)C(F)(F)F)cn1)n2C1CC1` [compound 910, 6-(3-cyano-1-cyclopropyl-6-ethyl-5-fluoro-1H-indol-2-yl)-N-[(2S)-1,1,1-trifluoropropan-2-yl]pyridine-3-sulfonamide] showed an IC50 of less than 500 nM.
Compound `CCc1cc2c(cc1F)c(C#N)c(-c1ccc(S(=O)(=O)N[C@@H](C)C(F)(F)F)cn1)n2-c1ncc(F)cn1` [compound 946, 6-[3-cyano-6-ethyl-5-fluoro-1-(5-fluoropyrimidin-2-yl)-1H-indol-2-yl]-N-[(2S)-1,1,1-trifluoropropan-2-yl]pyridine-3-sulfonamide] has an IC50 of less than 500 nM.
Compound `Cc1cc(NS(=O)(=O)C(C)(C)C)ncc1-c1c(C(=O)O)c2cc(F)c(OC(F)F)cc2n1[C@H](C)C1CC1` [compound 1086, 2-{6-[(tert-butylsulfonyl)amino]-4-methylpyridin-3-yl}-1-[(1R)-1-cyclopropylethyl]-6-(difluoromethoxy)-5-fluoro-1H-indole-3-carboxylic acid] has an IC50 of less than 500 nM.
For `Cc1nc(NS(=O)(=O)C(C)(C)C)ccc1-c1c(C(=O)O)c2cc(F)c(OC(F)F)cc2n1C(C)C` [compound 1093, 2-{6-[(tert-butylsulfonyl)amino]-2-methylpyridin-3-yl}-6-(difluoromethoxy)-5-fluoro-1-(propan-2-yl)-1H-indole-3-carboxylic acid], the IC50 was 500 to 2000 nM.
With `CCc1cc2c(cc1F)c(C#N)c(-c1ccc(S(=O)(=O)N[C@@H](C)C(F)(F)F)cn1)n2C1=NC=CCN1` [compound 941, 6-[3-cyano-1-(1,6-dihydropyrimidin-2-yl)-6-ethyl-5-fluoro-1H-indol-2-yl]-N-[(2S)-1,1,1-trifluoropropan-2-yl]pyridine-3-sulfonamide] the IC50 was 500 to 2000 nM.
Work on `CCc1cc2c(cc1F)c(C(N)=O)c(-c1ccc(S(=O)(=O)N[C@@H](C)C(F)(F)F)cn1)n2-c1cccnc1` [compound 1040, 6-ethyl-5-fluoro-1-(pyridin-3-yl)-2-(5-{[(2S)-1,1,1-trifluoropropan-2-yl]sulfamoyl}pyridin-2-yl)-1H-indole-3-carboxamide] yielded an IC50 of less than 500 nM.
With `C[C@H](NS(=O)(=O)c1ccc(-c2c(C#N)c3ccc(OC(F)(F)F)cc3n2C2CCC2)nc1)C1CC1` [compound 152, 6-[3-cyano-1-cyclobutyl-6-(trifluoromethoxy)-1H-indol-2-yl]-N-[(1S)-1-cyclopropylethyl]pyridine-3-sulfonamide] the IC50 was less than 500 nM.
With `CCc1cc2c(cc1F)c(C#N)c(-c1ccc(S(=O)(=O)N[C@@H](C)C(F)(F)F)cn1)n2-c1ccccc1F` [compound 1075, 6-[3-cyano-6-ethyl-5-fluoro-1-(2-fluorophenyl)-1H-indol-2-yl]-N-[(2S)-1,1,1-trifluoropropan-2-yl]pyridine-3-sulfonamide] the IC50 was less than 500 nM.
Compound `Cc1ccc2c(C#N)c(-c3ccc(S(=O)(=O)N[C@@H](C)C(F)(F)F)cn3)n(-c3ccccc3)c2c1` [compound 440, 6-(3-cyano-6-methyl-1-phenyl-1H-indol-2-yl)-N-[(2S)-1,1,1-trifluoropropan-2-yl]pyridine-3-sulfonamide] has an IC50 of less than 500 nM.
`CCc1cc2c(cc1F)c(C(N)=O)c(-c1ccc(S(=O)(=O)N[C@@H](C)C(F)(F)F)cn1)n2-c1cncc(Cl)c1` [compound 1044, 1-(5-chloropyridin-3-yl)-6-ethyl-5-fluoro-2-(5-{[(2S)-1,1,1-trifluoropropan-2-yl]sulfamoyl}pyridin-2-yl)-1H-indole-3-carboxamide] was tested, and the IC50 was less than 500 nM.
With `Cc1cc2c(cc1F)cc(-c1ccc(S(=O)(=O)N[C@@H](C)C(F)(F)F)cn1)n2-c1ccoc1` [compound 988, 6-[5-fluoro-1-(furan-3-yl)-6-methyl-1H-indol-2-yl]-N-[(2S)-1,1,1-trifluoropropan-2-yl]pyridine-3-sulfonamide] the IC50 was less than 500 nM.
With `Cc1cc2c(cc1F)c(C#N)c(-c1ccc(S(=O)(=O)NC(C)(C)C)cn1)n2C1CCOCC1` [compound 752, N-tert-butyl-6-[3-cyano-5-fluoro-6-methyl-1-(tetrahydro-2H-pyran-4-yl)-1H-indol-2-yl]pyridine-3-sulfonamide] the IC50 was less than 500 nM.
Compound `N#Cc1c(-c2ccc(S(=O)(=O)NC(CF)CF)cn2)n(-c2ncccn2)c2ccc(F)cc12` [compound 608, 6-[3-cyano-5-fluoro-1-(pyrimidin-2-yl)-1H-indol-2-yl]-N-(1,3-difluoropropan-2-yl)pyridine-3-sulfonamide] has an IC50 of less than 500 nM.
`N#Cc1c(-c2ccc(S(=O)(=O)NC(CF)CF)cn2)n(CC2CC2)c2ccc(Cl)cc12` [compound 73, 6-[5-chloro-3-cyano-1-(cyclopropylmethyl)-1H-indol-2-yl]-N-(1,3-difluoropropan-2-yl)pyridine-3-sulfonamide] gave an IC50 of less than 500 nM.
`COC(=O)c1c(-c2ccc(S(=O)(=O)NC(C)(C)C)cn2)n(C2CCC2)c2cc(C)c(F)cc12` [compound 770, methyl 2-[5-(tert-butylsulfamoyl)pyridin-2-yl]-1-cyclobutyl-5-fluoro-6-methyl-1H-indole-3-carboxylate] showed an IC50 of less than 500 nM.
